From patent publication US20250320206A1, “STAT6 DEGRADERS” (Gilead Sciences, Inc., priority 2024, published 2025) come the findings set out here.

For one experiment, the target named is T1, STAT6 (Homo sapiens, UniProt P42226).
T1 construct: These cells express endogenous STAT6; host or cells: HeLa LgBiT clone 4.14
T1 sequence (P42226 1-847): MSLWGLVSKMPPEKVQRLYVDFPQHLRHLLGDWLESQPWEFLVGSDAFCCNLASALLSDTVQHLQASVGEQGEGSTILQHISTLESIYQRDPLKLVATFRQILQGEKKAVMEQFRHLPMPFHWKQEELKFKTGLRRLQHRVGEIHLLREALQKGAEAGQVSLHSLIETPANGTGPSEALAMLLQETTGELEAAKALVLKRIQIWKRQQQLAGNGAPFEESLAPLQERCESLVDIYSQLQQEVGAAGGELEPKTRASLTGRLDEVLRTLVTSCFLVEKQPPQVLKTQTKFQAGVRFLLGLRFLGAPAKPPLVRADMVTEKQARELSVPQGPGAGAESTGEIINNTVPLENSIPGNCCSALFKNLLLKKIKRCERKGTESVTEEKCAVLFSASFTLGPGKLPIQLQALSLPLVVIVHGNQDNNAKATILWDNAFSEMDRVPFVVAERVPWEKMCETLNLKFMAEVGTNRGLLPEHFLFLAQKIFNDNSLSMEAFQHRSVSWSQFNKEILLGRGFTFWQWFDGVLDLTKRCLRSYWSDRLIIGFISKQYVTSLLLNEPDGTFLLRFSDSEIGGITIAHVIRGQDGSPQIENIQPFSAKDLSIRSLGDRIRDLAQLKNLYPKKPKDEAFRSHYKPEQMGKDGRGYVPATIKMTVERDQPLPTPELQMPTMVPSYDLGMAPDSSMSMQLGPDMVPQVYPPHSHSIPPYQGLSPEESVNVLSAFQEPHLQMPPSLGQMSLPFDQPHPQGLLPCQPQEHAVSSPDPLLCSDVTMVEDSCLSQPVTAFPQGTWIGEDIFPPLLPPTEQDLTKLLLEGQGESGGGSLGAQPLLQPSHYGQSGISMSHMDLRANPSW
As to the kind of experiment: Stat6 Degrader Assay (HiBiT based, HeLa LgBiT clone 4.14). The format is cell-based. The following applies: HeLa LgBiT clone 4.14 HiBiT-STAT6, 4-24 h incubation; values given for compounds with >80% Emax; geometric mean; read-out: STAT6 degradation DC50. The method in brief: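 Luminescence from HiBiT-STAT6 complementing stably expressed LgBiT in HeLa clone 4.14 reports remaining STAT6 protein. Cells (5000/well) exposed to compound for 4-24 h at 37° C; read 0.5 h after Nano-Glo addition. 100% degradation window set with 50 μM terfenadine; percent degradation plotted against concentration.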

The test system of experiment [1] is Eotaxin-3 release in human whole blood stimulated with IL-4. As to the kind of experiment: Human Whole Blood Eotaxin-3 Assay (IL-4 stimulated eotaxin-3 release). In kind it is cell-based. The following applies: IL-4 stimulation, 48 h, values given for compounds with >80% Emax, geometric mean. The method, then: Human Whole Blood Eotaxin-3 Assay
This was a human whole blood assay using recombinant human Interleukin 4 to stimulate the blood and measuring the ability of the test compounds to inhibit eotaxin-3 release. The biological activities of the test compounds have been tested in human whole blood stimulated with IL-4 measuring Eotaxin-3 release. The test compounds were added to 384 well clear flat-bottom plate in a 4-fold serial dilution in triplicates using a liquid handler. Human whole blood stabilized in lithium-heparin tubes was added in a volume of 65 μL per well, resulting in a final DMSO concentration of 0.5%. The plate is incubated for 2 h at 37° C. under 5% CO2/95% air. Subsequently, 5 μL of recombinant human IL-4 (R&D Systems, cat #204-ILB) was added to the wells to a final concentration of […]. The plate was incubated for 48 h at 37° C. under 5% CO2/95% air. The plate was spun down for 10 minutes at 500×g and 20 μL supernatant was harvested and transferred to a 384 well v-bottom plate using a liquid handler and stored at −20° C. until further analysis. 10 μL supernatant was used to measure the level of Eotaxin-3 (CCL26) using Human Eotaxin-3 MSD kit from Mesocsale (Cat #K251UEK-4). The assay was performed according to the manufacture instructions.
The data from the human whole blood eotaxin-3 assay is shown in FIG. 2 for Examples 3u208, 3u246, 3u118, 3u119, 3u120, and 3u74 (where the effect in % is plotted against the test concentration in M on a log scale).

Turning to `CNc1ccn(-c2ccnc3c2cc([C@H](C)N2CC=C(c4c(C)cc(C(=O)N5CCC(CN6CCN(Cc7ccc8c(c7)C7(CC7)C(=O)N8C7CCC(=O)NC7=O)C[C@@H]6C)CC5)cc4F)CC2)n3C)c(=O)c1` (mixture of isomers) [Example 3u190, 3-(5′-(((S)-4-((1-(3-fluoro-5-methyl-4-(1-((S)-1-(1-methyl-4-(4-(methylamino)-2-oxopyridin-1 (2H)-yl)-1H-pyrrolo[2,3-b]pyridin-2-yl)ethyl)-1,2,3,6-tetrahydropyridin-4-yl)benzoyl)piperidin-4-yl)methyl)-3-methylpiperazin-1-yl)methyl)-2′-oxospiro[cyclopropane-1,3′-indolin]-1′-yl)piperidine-2,6-dione], the DC50 at STAT6 turned out to be 0.5 nM. In addition, the EC50 in experiment [1] is 0.9 nM.
For `CNc1ccn(-c2ccnc3c2cc([C@H](C)N2CCC(c4ccc(C(=O)N5CCC(CN6CCN(Cc7ccc8c(c7)C7(CC7)C(=O)N8[C@H]7CCC(=O)NC7=O)C[C@@H]6C)CC5)cc4)CC2)n3C)c(=O)c1` (single isomer, unassigned) [Example 3u6], in that order: 0.7 nM and 19.3 nM.
Turning to `CNc1ccn(-c2ccnc3c2cc([C@H](C)N2CC=C(c4c(C)cc(C(=O)N5CCC(CN6CCN(Cc7cc8c(cc7F)n([C@H]7CCC(=O)NC7=O)c(=O)n8C)CC6)CC5)cc4F)CC2)n3C)c(=O)c1` (single isomer, unassigned) [Example 3u11], the DC50 on STAT6 was 0.5 nM. The same compound showed an EC50 in experiment [1] of 0.2 nM.
Taken in the same sequence, the figures for `CNc1ccn(-c2ccnc3c2cc([C@H](C)N2CC=C(c4c(C)cc(C(=O)N5CCC(CN6CCN(Cc7cc8c(cc7F)n([C@@H]7CCC(=O)NC7=O)c(=O)n8C)CC6)CC5)cc4F)CC2)n3C)c(=O)c1` (single isomer, unassigned) [Example 3u12] were 0.6 nM and 0.5 nM.
For `CNc1cc(=O)n(-c2ccnc3c2cc([C@H](C)N2CC=C(c4c(C)cc(C(=O)N5CCC(CN6CCN(Cc7ccc8c(c7)n(C)c(=O)n8[C@H]7CCC(=O)NC7=O)CC6)CC5)cc4F)CC2)n3C)cc1F` (single isomer, unassigned) [Example 3u14], in that order: 0.6 nM and 1.2 nM.
Taken in the same sequence, the figures for `CNc1cc(=O)n(-c2ccnc3c2cc([C@H](C)N2CC=C(c4c(C)cc(C(=O)N5CCC(CN6CCN(Cc7ccc8c(c7)n(C)c(=O)n8[C@@H]7CCC(=O)NC7=O)CC6)CC5)cc4F)CC2)n3C)cc1F` (single isomer, unassigned) [Example 3u15] were 0.8 nM and 2.2 nM.
For the compound `CNc1ccn(-c2ccnc3c2cc(CN2CCC(c4c(F)cc(C(=O)N5CCC(CN6CCN(Cc7ccc8c(c7)C(C)(C)C(=O)N8[C@H]7CCC(=O)NC7=O)CC6)CC5)cc4F)CC2)n3C)c(=O)c1` (single isomer, unassigned) [Example 3u17], the DC50 at STAT6 stood at 6 nM. The EC50 in experiment [1] is 6.3 nM.
As to `CNc1ccn(-c2ccnc3c2cc(CN2CCC(c4c(F)cc(C(=O)N5CCC(CN6CCN(Cc7ccc8c(c7)C(C)(C)C(=O)N8[C@@H]7CCC(=O)NC7=O)CC6)CC5)cc4F)CC2)n3C)c(=O)c1` (single isomer, unassigned) [Example 3u18], the half-maximal degradation concentration (DC50) on STAT6 was determined as 8.4 nM. This compound also showed an EC50 in experiment [1] of 18.6 nM.
For `Cc1cc(C(=O)N2CCC(CN3CCN(Cc4ccc5c(c4)n(C)c(=O)n5[C@@H]4CCC(=O)NC4=O)C[C@@H]3C)CC2)cc(F)c1C1=CCN(Cc2cc3c(-n4ccc5c(c4=O)CCN5)ccnc3n2C)CC1` (single isomer, unassigned) [Example 3u25], the 50% degradation concentration (DC50) at STAT6 is 1.3 nM. For the same compound, it took 1 nM to reach a half-maximal effect in experiment [1] (EC50).
For `CNc1cc(=O)n(-c2ccnc3c2cc(CN2CCC(c4c(F)cc(C(=O)N5CCC(CN6CCN(Cc7ccc8c(c7)n(C)c(=O)n8[C@H]7CCC(=O)NC7=O)CC6)CC5)cc4F)CC2)n3C)cc1F` (single isomer, unassigned) [Example 3u27], in that order: 2 nM and 5.7 nM.
For `CNc1cc(=O)n(-c2ccnc3c2cc(CN2CCC(c4c(F)cc(C(=O)N5CCC(CN6CCN(Cc7ccc8c(c7)n(C)c(=O)n8[C@@H]7CCC(=O)NC7=O)CC6)CC5)cc4F)CC2)n3C)cc1F` (single isomer, unassigned) [Example 3u28], in that order: 2.9 nM and 24.3 nM.
Taken in the same sequence, the figures for `CNc1ccn(-c2ccnc3c2cc(CN2CCC(c4c(F)cc(C(=O)N5CCC(CN6CCN(Cc7ccc8c(c7)n(C)c(=O)n8[C@H]7CCC(=O)NC7=O)CC6)CC5)cc4F)CC2)n3C)c(=O)c1` (single isomer, unassigned) [Example 3u30] were 2.2 nM and 1.6 nM.
Take `CNc1ccn(-c2ccnc3c2cc(CN2CCC(c4c(F)cc(C(=O)N5CCC(CN6CCN(Cc7ccc8c(c7)n(C)c(=O)n8[C@@H]7CCC(=O)NC7=O)CC6)CC5)cc4F)CC2)n3C)c(=O)c1` (single isomer, unassigned) [Example 3u31]: the DC50 on STAT6 worked out at 2.4 nM. The midpoint of the response in experiment [1], the EC50, lay at 2 nM.
`CNc1ccn(-c2ccnc3c2cc([C@H](C)N2CC=C(c4c(C)cc(C(=O)N5CCC(CN6CCN(Cc7ccc8c(c7)n(C)c(=O)n8[C@H]7CCC(=O)NC7=O)C[C@@H]6C)CC5)cc4F)CC2)n3C)c(=O)c1` (single isomer, unassigned) [Example 3u33]: the DC50 at STAT6 was found to be 0.2 nM. Besides, the EC50 in experiment [1] was 0.3 nM.
Taken in the same sequence, the figures for `CNc1cc(=O)n(-c2ccnc3c2cc([C@H](C)N2CCC(c4ccc(C(=O)N5CCC(CN6CCN(Cc7ccc8c(c7)C7(CC7)C(=O)N8[C@H]7CCC(=O)NC7=O)C[C@@H]6C)CC5)cc4)CC2)n3C)cc1F` (single isomer, unassigned) [Example 3u37] were 0.5 nM and 1.7 nM.
For `CNc1cc(=O)n(-c2ccnc3c2cc([C@H](C)N2CCC(c4ccc(C(=O)N5CCC(CN6CCN(Cc7ccc8c(c7)C7(CC7)C(=O)N8[C@@H]7CCC(=O)NC7=O)C[C@@H]6C)CC5)cc4)CC2)n3C)cc1F` (single isomer, unassigned) [Example 3u38], in that order: 1.3 nM and 1.5 nM.
Taken in the same sequence, the figures for `CNc1ccn(-c2ccnc3c2cc(CN2CCC(c4c(F)cc(C(=O)N5CCC(CN6CCN(Cc7cc8c(cc7F)N([C@H]7CCC(=O)NC7=O)C(=O)C87CC7)CC6)CC5)cc4F)CC2)n3C)c(=O)c1` (single isomer, unassigned) [Example 3u43] were 8.5 nM and 9.1 nM.
Take `CNc1ccn(-c2ccnc3c2cc(CN2CCC(c4c(F)cc(C(=O)N5CCC(CN6CCN(Cc7cc8c(cc7F)N([C@@H]7CCC(=O)NC7=O)C(=O)C87CC7)CC6)CC5)cc4F)CC2)n3C)c(=O)c1` (single isomer, unassigned) [Example 3u44]: the DC50 at STAT6 was found to be 10.2 nM. In experiment [1], this compound yielded an EC50 of 10.1 nM.
In the case of `CNc1ccn(-c2ccnc3c2cc(CN2CC=C(c4c(F)cc(C(=O)N5CCC(CN6CCN(Cc7ccc8c(c7)C(C)(C)C(=O)N8[C@H]7CCC(=O)NC7=O)C[C@@H]6C)CC5)cc4F)CC2)n3C)c(=O)c1` (single isomer, unassigned) [Example 3u46], the DC50 at STAT6 turned out to be 5.8 nM. The EC50 in experiment [1] stood at 10.1 nM.
Taken in the same sequence, the figures for `CNc1ccn(-c2ccnc3c2cc(CN2CC=C(c4c(F)cc(C(=O)N5CCC(CN6CCN(Cc7ccc8c(c7)C(C)(C)C(=O)N8[C@@H]7CCC(=O)NC7=O)C[C@@H]6C)CC5)cc4F)CC2)n3C)c(=O)c1` (single isomer, unassigned) [Example 3u47] were 0.8 nM and 8 nM.
